Source: US20130190223A1, “NONIMMUNOSUPPRESSIVE CYCLOSPORINE ANALOGUE MOLECULES” (ISOTECHNIKA PHARMA INC., priority 2008, published 2013)

Tests used:
[1] = biological target: T1, CyP-D (Rattus norvegicus, UniProt P29117); type: biochemical; settings: mitochondria isolated from rat liver, 190 μM calcium, swelling as decline in A540
T1 construct: Mitochondria were isolated from fresh rat liver; from tissue; host or cells: rat liver mitochondria
Source text: A mitochondria swelling assay was used to measure the efficacy of NICAMs in blocking CyP-D and mitochondrial permeability transition. Under certain pathological conditions, mitochondria lose the ability to regulate calcium levels, and excessive calcium accumulation in the mitochondrial matrix results in the opening of large pores in the inner mitochondrial membrane. Nonselective conductance of ions and molecules up to 1.5 kilodaltons through the pore, a process called mitochondrial permeability transition, leads to swelling of mitochondria and other events which culminate in cell death. […] In general, mitochondria isolated from rat liver were exposed to calcium to induce MPTP opening in the absence or presence of test compounds, and calcium-induced swelling was measured as a reduction in light absorbance at 540 nm.
Mitochondria were isolated from fresh rat liver. Ice-cold or 4° C. conditions were used throughout all steps of the isolation. The liver was rinsed thoroughly and chopped in a small volume of isolation buffer (IB; 10 mM Hepes, 70 mM sucrose, 210 mM mannitol, 0.5 mM EDTA). Aliquots of the minced liver were homogenized in IB using a Teflon-glass Potter-Elvehjem tissue grinder and passed through a cell screen filter. The filtered homogenate was centrifuged at 600 g for 10 min, then the resulting supernatant centrifuged at 7000 g for 10 min. The supernatant was discarded, and the pellet resuspended in wash buffer (10 mM Hepes, 70 mM sucrose, 210 mM mannitol) and centrifuged a final time at 7000 g for 10 min. The supernatant was discarded, and the mitochondria-containing pellet suspended and stored on ice in 2 mL of respiration buffer (RB; 5 mM Hepes, 70 mM sucrose, 210 mM mannitol, 10 mM sodium succinate, 1 mM sodium phosphate dibasic).
Test compound solutions were prepared from 10 mg/ml stocks (dimethyl sulfoxide vehicle) first by diluting the test compound 1000× into respiration buffer #2 (RB2; 5 mM Hepes, 70 mM sucrose, 210 mM mannitol, 10 mM sodium succinate, 1 mM sodium phosphate dibasic, 1% fetal bovine serum, 2 μM rotenone), then by 3×-serial dilutions in RB2 to achieve test compound concentrations of 10000, 3333, 1111, 370, 123, 41, and 14 ng/mL. Polystyrene tubes and plates were used for all preparations.
Swelling assays were completed in a 96-well flat-bottom polystyrene plates. In each well a 10-μL aliquot of mitochondria suspension, equivalent to 100-200 μg total protein, was combined with 90 μL of test compound, incubated for 10 min, then the baseline absorbance measured on a plate reader (540 nm wavelength; A540). Swelling was induced by adding 5 μL of 4 mM calcium chloride to achieve a final calcium concentration of 190 μM. Mitochondria swelling was indicated by a decline in A540. […] Duplicate samples were assayed for each test compound concentration.
Means and ranges of duplicate samples are shown.

[2] = test system: human lymphocytes; experiment: Immunosuppressive potency: inhibition of proliferation of anti-CD3 stimulated human lymphocytes (CFSE, flow cytometry); type: cell-based; settings: relative potency: IC50 for inhibition of cell division normalized to CsA, 3 days incubation
Protocol: The immunosuppressive potency of test compounds was assessed by measuring their ability to inhibit the proliferation of human lymphocytes in cell culture. Lymphocytes were isolated from blood of normal human volunteers by Ficoll-gradient centrifugation and stained with 2 μg/ml carboxyfluoroscein diacetate succinimydyl ester (CFSE), a fluorescent cell division tracer molecule. Cells were stimulated through the CD3/T-cell receptor by seeding cells at 300,000/well into 96-well flat-bottom, high-binding plates coated with 1 μg/ml UCHT-1 anti-human CD3 antibody. Test compounds were prepared first as 10 mg/ml stock solutions in dimethylsulfoxide (DMSO). Test solutions were prepared by 500-fold dilution of the DMSO stock solutions, then 3-fold serial dilutions in cell culture medium (RPMI+5% FBS+penicillin-steptomycin) for a total of 7 concentrations per compound. Test solutions were added in equal volume to the culture wells containing cells to achieve final concentrations after dilution of 13.7 ng/ml-10,000 ng/ml. […] Following 3 days incubation cells were stained with CD95-APC (lymphocyte activation marker) and analyzed by flow cytometry with a Becton Dickinson FACSCalibur. Percentage cell division was assessed in forward/side-scatter-gated lymphocytes by measuring the proportion of cells that underwent one or more cell divisions as determined by serial halving of CFSE intensity. The nondivided parent population was determined from samples maintained in culture without anti-CD3 stimulation. IC50 values for inhibition of cell division were determined by nonlinear regression analysis. […]

T1 sequence (P29117 30-206): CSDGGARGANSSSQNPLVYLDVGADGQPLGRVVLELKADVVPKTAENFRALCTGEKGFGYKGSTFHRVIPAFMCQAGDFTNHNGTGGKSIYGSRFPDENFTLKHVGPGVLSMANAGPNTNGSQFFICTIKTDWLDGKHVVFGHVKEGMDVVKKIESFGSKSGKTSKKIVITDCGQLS

SMILES | CYP-D Inhibition (% Potency Vs CsA) [1] [%] | Immunosuppression (% Relative to CsA) [2] [%]
CCC1NC(=O)C(C(O)C(C)CCCO)N(C)C(=O)C(C(C)C)N(C)C(=O)C(CC(C)C)N(C)C(=O)C(CC(C)C)N(C)C(=O)C(C)NC(=O)C(C)NC(=O)C(CC(C)C)N(C)C(=O)C(C(C)C)NC(=O)C(CC(C)C)N(C)C(=O)CN(C)C1=O (centres unmarked) [Compound 420-28] | 78.0 | <1
CCC1NC(=O)C(C(O)C(C)CCCCCCCCO)N(C)C(=O)C(C(C)C)N(C)C(=O)C(CC(C)C)N(C)C(=O)C(CC(C)C)N(C)C(=O)C(C)NC(=O)C(C)NC(=O)C(CC(C)C)N(C)C(=O)C(C(C)C)NC(=O)C(CC(C)C)N(C)C(=O)CN(C)C1=O (centres unmarked) [Compound 420-112] | 106.7 | 2
CCC1NC(=O)C(C(O)C(C)CC=CCCCCCCC(=O)N(C)C)N(C)C(=O)C(C(C)C)N(C)C(=O)C(CC(C)C)N(C)C(=O)C(CC(C)C)N(C)C(=O)C(C)NC(=O)C(C)NC(=O)C(CC(C)C)N(C)C(=O)C(C(C)C)NC(=O)C(CC(C)C)N(C)C(=O)CN(C)C1=O (centres unmarked) [Compound 420-114] | 63.4 | <1
CCC1NC(=O)C(C(O)C(C)CCCCC(=O)N(C)C)N(C)C(=O)C(C(C)C)N(C)C(=O)C(CC(C)C)N(C)C(=O)C(CC(C)C)N(C)C(=O)C(C)NC(=O)C(C)NC(=O)C(CC(C)C)N(C)C(=O)C(C(C)C)NC(=O)C(CC(C)C)N(C)C(=O)CN(C)C1=O (centres unmarked) [Compound 404-132] | 122.0 | <1
CCC1NC(=O)C(C(O)C(C)CCCCC(N)=O)N(C)C(=O)C(C(C)C)N(C)C(=O)C(CC(C)C)N(C)C(=O)C(CC(C)C)N(C)C(=O)C(C)NC(=O)C(C)NC(=O)C(CC(C)C)N(C)C(=O)C(C(C)C)NC(=O)C(CC(C)C)N(C)C(=O)CN(C)C1=O (centres unmarked) [Compound 404-130] | 114.7 | <1
CCC(O)CCCC(C)C(O)C1C(=O)NC(CC)C(=O)N(C)CC(=O)N(C)C(CC(C)C)C(=O)NC(C(C)C)C(=O)N(C)C(CC(C)C)C(=O)NC(C)C(=O)NC(C)C(=O)N(C)C(CC(C)C)C(=O)N(C)C(CC(C)C)C(=O)N(C)C(C(C)C)C(=O)N1C (centres unmarked) [Compound 404-195] | 143.1 | 2
CCC1NC(=O)C(C(O)C(C)CCCCCCCCCNC(=O)OC(C)(C)C)N(C)C(=O)C(C(C)C)N(C)C(=O)C(CC(C)C)N(C)C(=O)C(CC(C)C)N(C)C(=O)C(C)NC(=O)C(C)NC(=O)C(CC(C)C)N(C)C(=O)C(C(C)C)NC(=O)C(CC(C)C)N(C)C(=O)CN(C)C1=O (centres unmarked) [Compound 420-125] | 42.4 | 
CCC1NC(=O)C(C(O)C(C)CCCC(C)O)N(C)C(=O)C(C(C)C)N(C)C(=O)C(CC(C)C)N(C)C(=O)C(CC(C)C)N(C)C(=O)C(C)NC(=O)C(C)NC(=O)C(CC(C)C)N(C)C(=O)C(C(C)C)NC(=O)C(CC(C)C)N(C)C(=O)CN(C)C1=O (centres unmarked) [Compound 404-98] | 162.7 | 3
CCC1NC(=O)C(C(O)C(C)CC=CCCCC(=O)N(C)C)N(C)C(=O)C(C(C)C)N(C)C(=O)C(CC(C)C)N(C)C(=O)C(CC(C)C)N(C)C(=O)C(C)NC(=O)C(C)NC(=O)C(CC(C)C)N(C)C(=O)C(C(C)C)NC(=O)C(CC(C)C)N(C)C(=O)CN(C)C1=O (centres unmarked) [Compound 404-156] | 82.2 | 1
C=CCC(O)CCCC(C)C(O)C1C(=O)NC(CC)C(=O)N(C)CC(=O)N(C)C(CC(C)C)C(=O)NC(C(C)C)C(=O)N(C)C(CC(C)C)C(=O)NC(C)C(=O)NC(C)C(=O)N(C)C(CC(C)C)C(=O)N(C)C(CC(C)C)C(=O)N(C)C(C(C)C)C(=O)N1C (centres unmarked) [Compound 420-49-1] | 143.6 | 3
CCC1NC(=O)C(C(O)C(C)CCCCC(=O)N(CC)CC)N(C)C(=O)C(C(C)C)N(C)C(=O)C(CC(C)C)N(C)C(=O)C(CC(C)C)N(C)C(=O)C(C)NC(=O)C(C)NC(=O)C(CC(C)C)N(C)C(=O)C(C(C)C)NC(=O)C(CC(C)C)N(C)C(=O)CN(C)C1=O (centres unmarked) [Compound 404-85] | 128.7 | 2
CCC1NC(=O)C(C(O)C(C)CC=CCCCCCCNC(=O)OC(C)(C)C)N(C)C(=O)C(C(C)C)N(C)C(=O)C(CC(C)C)N(C)C(=O)C(CC(C)C)N(C)C(=O)C(C)NC(=O)C(C)NC(=O)C(CC(C)C)N(C)C(=O)C(C(C)C)NC(=O)C(CC(C)C)N(C)C(=O)CN(C)C1=O (centres unmarked) [Compound 420-120] | 9.4 | 3
CCCC=CCC(C)C(O)C1C(=O)NC(CC)C(=O)N(C)CC(=O)N(C)C(CC(C)C)C(=O)NC(C(C)C)C(=O)N(C)C(CC(C)C)C(=O)NC(C)C(=O)NC(C)C(=O)N(C)C(CC(C)C)C(=O)N(C)C(CC(C)C)C(=O)N(C)C(C(C)C)C(=O)N1C (centres unmarked) [Compound 404-26] | 58.4 | 
CCC1NC(=O)C(C(O)C(C)CC=CCCCCC(N)=O)N(C)C(=O)C(C(C)C)N(C)C(=O)C(CC(C)C)N(C)C(=O)C(CC(C)C)N(C)C(=O)C(C)NC(=O)C(C)NC(=O)C(CC(C)C)N(C)C(=O)C(C(C)C)NC(=O)C(CC(C)C)N(C)C(=O)CN(C)C1=O (centres unmarked) [Compound 404-164] | 98.9 | 
CCCNC(=O)CCC=CCC(C)C(O)C1C(=O)NC(CC)C(=O)N(C)CC(=O)N(C)C(CC(C)C)C(=O)NC(C(C)C)C(=O)N(C)C(CC(C)C)C(=O)NC(C)C(=O)NC(C)C(=O)N(C)C(CC(C)C)C(=O)N(C)C(CC(C)C)C(=O)N(C)C(C(C)C)C(=O)N1C (centres unmarked) [Compound 404-178] | 71.3 | <1
CCC1NC(=O)C(C(O)C(C)CC=CCCC(=O)N(C)C)N(C)C(=O)C(C(C)C)N(C)C(=O)C(CC(C)C)N(C)C(=O)C(CC(C)C)N(C)C(=O)C(C)NC(=O)C(C)NC(=O)C(CC(C)C)N(C)C(=O)C(C(C)C)NC(=O)C(CC(C)C)N(C)C(=O)CN(C)C1=O (centres unmarked) [Compound 404-157] | 142.3 | <1
CCC1NC(=O)C(C(O)C(C)CC=CCCC#N)N(C)C(=O)C(C(C)C)N(C)C(=O)C(CC(C)C)N(C)C(=O)C(CC(C)C)N(C)C(=O)C(C)NC(=O)C(C)NC(=O)C(CC(C)C)N(C)C(=O)C(C(C)C)NC(=O)C(CC(C)C)N(C)C(=O)CN(C)C1=O (centres unmarked) [Compound 404-194] | 123.2 | 2
CCC1NC(=O)C(C(O)C(C)CC=CCCCCC(=O)N2CCOCC2)N(C)C(=O)C(C(C)C)N(C)C(=O)C(CC(C)C)N(C)C(=O)C(CC(C)C)N(C)C(=O)C(C)NC(=O)C(C)NC(=O)C(CC(C)C)N(C)C(=O)C(C(C)C)NC(=O)C(CC(C)C)N(C)C(=O)CN(C)C1=O (centres unmarked) [Compound 404-162] | 91.1 | <1
CCC1NC(=O)C(C(O)C(C)CC=CCCCCC(=O)N(C)C)N(C)C(=O)C(C(C)C)N(C)C(=O)C(CC(C)C)N(C)C(=O)C(CC(C)C)N(C)C(=O)C(C)NC(=O)C(C)NC(=O)C(CC(C)C)N(C)C(=O)C(C(C)C)NC(=O)C(CC(C)C)N(C)C(=O)CN(C)C1=O (centres unmarked) [Compound 404-154] | 119.4 | 2
